The values below come from US5190922A (priority 1991, dated 1993).

Non-standard residues stand in square brackets, D forms with d. Residues, ends and D or L forms follow the SMILES beside them. *: point of attachment. X6 = N#CC(Cc1ccccc1)(Cc1ccccc1)C(=O)*; NMeF = CN[C@@H](Cc1ccccc1)C(=O)O; Cha = N[C@@H](CC1CCCCC1)C(=O)O; dCha = N[C@H](CC1CCCCC1)C(=O)O; X9 = CC[C@H](C(=O)*)c1ccccc1; 4Amb = NCc1ccc(C(=O)O)cc1; X4 = NCCCN(CCc1ccccc1)*; NH(CH2)5NH2 = NCCCCCN*; NHBn = c1ccc(CN*)cc1; X1 = N#CCCN*

In the first assay the target is T1, C5a Receptor (Homo sapiens, UniProt P21730).
T1 construct: 2.5-25 μg/mL of purified PMNL membrane fragments; from tissue; host or cells: polymorphonuclear leukocyte (PMNL) membrane fragments
T1 sequence (P21730 1-350): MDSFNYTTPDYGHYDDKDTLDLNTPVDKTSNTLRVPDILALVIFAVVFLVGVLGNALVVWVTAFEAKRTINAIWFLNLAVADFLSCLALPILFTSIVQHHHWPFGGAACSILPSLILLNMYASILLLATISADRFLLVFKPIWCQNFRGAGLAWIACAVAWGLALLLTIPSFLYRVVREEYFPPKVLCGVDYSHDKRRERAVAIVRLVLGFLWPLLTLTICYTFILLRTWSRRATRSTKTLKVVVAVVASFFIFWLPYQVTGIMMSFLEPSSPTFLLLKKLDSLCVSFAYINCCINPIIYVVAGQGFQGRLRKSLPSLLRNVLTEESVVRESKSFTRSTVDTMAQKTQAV
The assay can be described thus: Anaphylatoxin receptor binding Ki determination (inhibition of 125I-C5a binding to PMNL membrane fragments).
Conditions: not given
The method, then:
Specific inhibition of C5 a binding activity of representative compounds of the present invention was measured using 0.03-1 nM ^125 I-C5 a with 2.5-25 μg/mL of purified PMNL membrane fragments (Borregaard, N.; Heiple, J. M.; Simons, E. R.; and Clark, R. A. J. Cell. Biol. 1983, 97, 52-61.). Free and membrane-bound ligand were separated by filtration.
With `CN[C@@H](Cc1ccccc1)C(=O)N[C@@H](CCCCN)C(=O)N1CCC[C@H]1C(=O)N[C@H](CC1CCCCC1)C(=O)N[C@@H](Cc1ccccc1)C(=O)NCc1ccc(C(=O)O)cc1` [Example 177, (N-Methyl)Phenylalanyl-Lysyl-Prolyl-{(2R)-2-Amino-3-cyclohexylpropanoyl}-Phenylalanyl-N-(4-Carboxybenzyl)amide] (H-[NMeF]KP[dCha]F[4Amb]-OH), affinity was put at a Ki of 38700 nM.

Still in this assay, the particulars now being: 0.03-1 nM 125I-C5a, 2.5-25 μg/mL purified PMNL membrane fragments, filtration; read-out: Ki (In vitro C5a Receptor Binding Potency).
For the compound `CN[C@@H](Cc1ccccc1)C(=O)N[C@@H](CCCCN)C(=O)N1CCC[C@H]1C(=O)N[C@H](CC1CCCCC1)C(=O)N(CCCN)CCc1ccccc1` [Example 225, (N-Methyl)Phenylalanyl-Lysyl-Prolyl-{(2R)-2-Amino-3-cyclohexylpropanoyl}-N-3-Aminopropyl-N-2-Phenethylamide] (H-[NMeF]KP[dCha]-X4), the Ki (commonly the equilibrium dissociation constant of an inhibitor or competing ligand from its target) stood at 46000 nM.

Take `N#CC(Cc1ccccc1)(Cc1ccccc1)C(=O)N[C@@H](CCCCN)C(=O)N1CCC[C@H]1C(=O)N[C@H](CC1CCCCC1)C(=O)N[C@@H](Cc1ccccc1)C(=O)N[C@H](CCCNC(=N)N)C(=O)O` [Example 88, {2-Benzyl-2-cyano-3-phenylpropionyl}-Lysyl-Prolyl-{(2R)-2-Amino-3-cyclohexylpropanoyl}-Phenylalanyl-DArginyl-OH] (X6-KP[dCha]F[dR]-OH): the inhibition constant (Ki) turned out to be 670 nM.

Take `CN[C@@H](Cc1ccccc1)C(=O)N[C@@H](CCCCN)C(=O)N1CCC[C@H]1C(=O)N[C@H](CC1CCCCC1)C(=O)N[C@@H](CC1CCCCC1)C(=O)NCCC#N` [Example 223, (N-Methyl)Phenylalanyl-Lysyl-Prolyl-{(2R)-2-Amino-3-cyclohexylpropanoyl}-{(2S)-2-Amino-3-cyclohexylpropanoyl}-N-(2-Cyanoethyl)amide] (H-[NMeF]KP[dCha][Cha]-X1): the Ki came out at 1200 nM.

`CN[C@@H](Cc1ccccc1)C(=O)N[C@@H](CCCCN)C(=O)N1CCC[C@H]1C(=O)N[C@H](CC1CCCCC1)C(=O)N[C@@H](CC1CCCCC1)C(=O)NCCCCCN` [Example 30, (N-Methyl)Phenylalanyl-Lysyl-Prolyl-{(2R)-2-Amino-3-cyclohexylpropanoyl}-{(2S)-2-Amino-3-cyclohexylpropanoyl}-N-(5-Aminopentyl)amide] (H-[NMeF]KP[dCha][Cha]-{NH(CH2)5NH2}): the Ki is 2200 nM.

Take `CC[C@H](C(=O)N[C@@H](CCCCN)C(=O)N1CCC[C@H]1C(=O)N[C@H](CC1CCCCC1)C(=O)N[C@@H](CC1CCCCC1)C(=O)N[C@H](CCCNC(=N)N)C(=O)O)c1ccccc1` [Example 2, (S)-(+)-2-phenylbutyryl-Lysyl-Prolyl-{(2R)-2-Amino-3-cyclohexylpropanoyl}-{(2S)-2-Amino-3-cyclohexylpropanoyl}-DArginyl-OH] (X9-KP[dCha][Cha][dR]-OH): the Ki was 14 nM.

`N=C(N)NCCC[C@@H](NC[C@H](Cc1ccccc1)NC(=O)[C@@H](CC1CCCCC1)NC(=O)[C@@H]1CCCN1C(=O)[C@H](CCCCN)NC(=O)CCCCc1ccccc1)C(=O)O` [Example 202, {5-Phenylvaleryl}-Lysyl-Prolyl -{(2R)-2-Amino-3-cyclohexylpropanoyl}-Phenylalanyl-.PSI.(CH2 NH)-DArginyl-OH]: the Ki was 52000 nM.

Consider `CN[C@@H](Cc1ccccc1)C(=O)N[C@@H](CCCCN)C(=O)N1CCC[C@H]1C(=O)N[C@H](CC1CCCCC1)C(=O)N[C@@H](CC1CCCCC1)C(=O)NCc1ccccc1` [Example 96, (N-Methyl)Phenylalanyl-Lysyl-Prolyl-{(2R)-2-Amino-3-cyclohexylpropanoyl}-{(2S)-2-Amino-3-cyclohexylpropanoyl}-N-Benzylamide] (H-[NMeF]KP[dCha][Cha]-NHBn), for which the inhibitory constant (Ki) came out at 90 nM.
